Test results: patent US10416175B2, “Opioid detection” (Randox Laboratories Limited, priority 2015, dated 2019)
Converted amounts (≈) assume the structure as drawn. “And” between values parts separate entries of the source, which are not always exact repeats. Equal values may be shown once. Where a name gives a salt, the structure may show the parent alone.

How the values were obtained:
[1] = tested on: antibody specific to mitragynine; conditions: polyclonal antibody of U.S. application 14/184,422, based on 100% to mitragynine; cited from earlier work
[2] = tested on: antibody specific to mitragynine; test: ELISA for mitragynine and 8-desmethylmitragynine (polyclonal antibody to mitragynine); type: binding; conditions: for % CR: based on 100% specificity to mitragynine; for IC50: standard concentration which produces 50% B/B0
From the text: In one embodiment, the antibodies and immunoassay methods and kits for mitragynine (kratom), are as described in U.S. patent application Ser. No. 14/184,422, filed Feb. 19, 2014 entitled “Immunoassay for Detecting Kratom, its Constituents and their Use” the entire contents of which are incorporated herein by reference. In particular, U.S. patent application Ser. No. 14/184,422 describes a polyclonal antibody which that binds specifically to an epitope of one or more of mitragynine, 8-desmethylmitragynine, 8-sulphonylmitragynine, and 8-glucuronidylmitragynine which was raised to an immunogen having the structure of:
[drawing 5] • wherein HRP is horseradish peroxidase.

[3] = tested on: Bio-Quant Tramadol commercial immunoassay; conditions: cited from earlier work
[4] = tested on: Immunanalysis Tramadol commercial immunoassay; conditions: cited from earlier work
[5] = tested on: Neogen Tramadol commercial immunoassay; conditions: cited from earlier work
[6] = tested on: antibody raised against Immunogen-2; test: Competitive ELISA with polyclonal antibody raised against Immunogen-2, Tracer-1 as detecting agent; type: binding, sheep; conditions: for % CR: relative to O-desmethyltramadol = 100
Protocol: Pre-immunization blood samples are collected from sheep. In order to generate polyclonal antisera, 2 mgs of the immunogen (structure 1) is prepared in PBS, mixed at a ratio of 50% immunogen in PBS to 50% Freund's Complete adjuvant (Sigma, Product Number F5881) and emulsified by repeatedly passing the mixture through a tip on the end of a 1 ml syringe, until it reaches the required semi-solid consistency. 1.1 ml of the emulsified mixture is injected intramuscularly into each host animal (sheep) as the primary immunisation dose. Further injections (boosts) are prepared (1 mg of immunogen is prepared in PBS and mixed at a ratio of 50% Immunogen in PBS/50% Freunds Incomplete adjuvant, Sigma, Product Number—F5506). Boost injections are delivered intramuscularly at monthly intervals, 1 ml per animal. Serum is sampled monthly by collection of whole blood from the jugular vein for evaluation of the antibody titre. The degree of antibody purification required depends on the intended application. For many purposes, there is no requirement for purification of the serum, however, in other cases, such as, where the antibody is to be immobilised on a solid support, purification steps (such as caprylic acid/ammonium sulphate precipitation) can be taken to remove undesired material and eliminate non-specific binding. In another embodiment, the purification is by immunoglobulin precipitation, antigen-specific affinity purification, column chromatography, such as, size-exclusion chromatography or ion exchange chromatography.
The polyclonal antibody raised against Immunogen-2 of Example 9 was removed from fridge or freezer and brought to room temperature. The antibody was diluted to 2.5 μg/ml in 10 mM Tris pH 8.5 and all appropriate wells are coated at 125 μl/well at 37° C. for 2 hours or at 4° C. overnight. The plate was washed 4 times over a period of 10 minutes with working strength tris-buffered saline and tween 20 (TBST) wash buffer and tapped dry. 50 μl of working strength TBST was pipetted into the appropriate wells. Dilutions of target analyte and potential crossreactant(s) were prepared in working strength TBST and pipetted (50 μl) into the appropriate wells beginning with the lowest concentration to the highest concentration. Hapten-HRP (Tracer-1) conjugate at the appropriate concentration was prepared in conjugate dilution buffer and 75 μl into pipetted into appropriate wells. The plate was tapped gently to mix contents, sealed and incubated at 25° C. for 1 hour. The plate was washed 6 times over a 10-15 minute period (3 quick washes followed by 3 additional washes over 12 minutes) and tapped dry thoroughly onto tissue paper. Trimethylbenzidine (TMB) solution (125 μl) was added to each well and tapped gently, and the plate was incubated at room temperature for 20 minutes in the dark. The reaction was stopped by addition of 125 μl of 0.2 M sulphuric acid to each well and the absorbance measured at 450 nm using an ELISA plate reader (Biotek Elx800).

[7] = over 24-72 hours, following oral administration of tramadol; cited from earlier work
[8] = tested on: IDS Tramadol commercial immunoassay; conditions: cited from earlier work
[9] = tested on: Randox Tramadol commercial immunoassay; conditions: cited from earlier work
[10] = antibodies from three sheep immunised with Immunogen-2

Molecule	cross-reactivity [1]	B/Bo ([2]; 0.313 ng/ml analyte)	B/Bo ([2]; 0.625 ng/ml analyte)	B/Bo ([2]; 1.250 ng/ml analyte)	B/Bo ([2]; 2.500 ng/ml analyte)	B/Bo ([2]; 5.000 ng/ml analyte)	B/Bo ([2]; 10.000 ng/ml analyte)	B/Bo ([2]; 20.000 ng/ml analyte)	% CR [2]	IC50 [2]	% Cross-reactivity [3]	% Cross-reactivity [4]	% Cross-reactivity [5]	B/Bo ([6]; 0.156 ng/ml analyte)	B/Bo ([6]; 0.313 ng/ml analyte)	B/Bo ([6]; 0.625 ng/ml analyte)	B/Bo ([6]; 1.250 ng/ml analyte)	B/Bo ([6]; 2.500 ng/ml analyte)	B/Bo ([6]; 5.000 ng/ml analyte)	Urinary excretory amount [7]	also measured
CC[C@@H]1CN2CCc3c([nH]c4cccc(O)c34)[C@@H]2C[C@@H]1/C(=C\OC)C(=O)OC [8-Desmethylmitragynine, 8-desmethylmitragynine]	about 77.87%	74	63	54	42	29	18	13	77.87%	1.532 ng/mL (≈ 3.98 nM)											
CNC[C@@H]1CCCC[C@@]1(O)c1cccc(OC)c1 (racemic) [N-Desmethyltramadol, (±)-cis-2-[(methylamino)methyl]-1-(3-methoxyphenyl)cyclohexanol]											<5%	44%	6%	97	98	99	100	99	97	2-31%	B/Bo ([6]; 10.000 ng/ml analyte): 98; cross-reactivity (in words) [6, 10]: no cross-reactivity; IC50 ([6]; antibody raised against Immunogen-2, Tracer-1): >>10 ng/ml; binding (in words) ([6]; at the concentrations tested (Table 2)): no appreciable binding; % CR [6]: <<1.78%; % Cross-reactivity [8]: <2%; % Cross-reactivity [9]: 4%
(±)-cis-2-[(dimethylamino)methyl]-1-(3 hydroxyphenyl)-cyclohexanol [O-Desmethyltramadol]											100%	6%	27%	53	37	24	16	10	6	5-15%	B/Bo ([6]; 10.000 ng/ml analyte): 4; IC50 of antibodies to O-desmethyltramadol [6, 10]: 0.178 ng/mL and 0.181 ng/mL and 0.214 ng/mL; % CR [6]: 100%; % Cross-reactivity [8]: 40%; % Cross-reactivity [9]: 57%
COc1cccc([C@]2(O)CCCC[C@H]2CN(C)C)c1 (racemic) [Tramadol, (±)-cis-2-[(dimethylamino)methyl]-1-(3-methoxyphenyl)cyclohexanol hydrochloride]																				12-32%	
CC[C@@H]1CN2CCc3c([nH]c4cccc(OC)c34)[C@@H]2C[C@@H]1/C(=C\OC)C(=O)OC [Mitragynine, mitragynine]	100%	75	63	49	37	25	17	11	100.00%	1.193 ng/mL (≈ 2.99 nM)											
